From US8658797B2, “Asymmetric ureas and medical uses thereof” (Helsinn Healthcare SA, priority 2011, dated 2014)

Tests used:
Male C57BL/6J mice = assay: Evaluation of GHSR1a antagonists on food intake test in mouse; type: in vivo; conditions: for Mouse Food Intake effect: NSE: not significant effect
Experimental: Male C57BL/6J mice, 18-22 g body weight, were fasted overnight (16 h before compound administration) and placed in a regular light dark cycle (6:00-18:00 light/18:00-6:00 dark). After 1 wk acclimation, animals were sorted into two groups (n=6 each, 2 per cage) based on body weight. Animals in group one were be treated with vehicle and animals in group 2 were treated with the test agent (n=6 for each group). The cumulative food intake was evaluated at 1, 2, 4, 8 and 24 hrs after drug or vehicle treatment. Food intake was measured by subtracting uneaten food from the initial premeasured food.

GHSR-1a [1] = target: T1, GHSR-1a (Homo sapiens, UniProt Q92847); assay: Calcium FLIPR assay, GHSR-1a antagonism (reduction of ghrelin response); type: cell-based; conditions: HEK293/GHSR1a cell line; ghrelin 10 nM; read-out: IC50 FLIPR antagonist Activity
T1 construct: expressed in transfected cells; host or cells: HEK293
T1 sequence (Q92847 whole entry): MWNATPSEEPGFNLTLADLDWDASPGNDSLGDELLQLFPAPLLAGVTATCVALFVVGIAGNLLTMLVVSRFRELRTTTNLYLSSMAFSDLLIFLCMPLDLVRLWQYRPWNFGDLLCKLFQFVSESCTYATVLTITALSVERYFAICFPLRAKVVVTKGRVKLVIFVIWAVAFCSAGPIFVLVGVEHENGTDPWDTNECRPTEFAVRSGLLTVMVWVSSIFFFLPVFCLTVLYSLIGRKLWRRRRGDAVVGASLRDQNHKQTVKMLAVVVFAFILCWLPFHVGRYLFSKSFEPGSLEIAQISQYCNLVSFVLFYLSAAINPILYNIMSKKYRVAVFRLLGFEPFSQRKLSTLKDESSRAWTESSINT
Experimental: (§1) The intracellular calcium assay was carried out in a 384-well format FLIPR™ (Molecular Device) HEK293/GHSR1a cell line. Cells were seeded 24 hr prior to the experiments at an optimal density per well. Preincubation with selected calcium dye lasted for 30-60 min at room temperature or 37° C. Test compounds, dissolved in DMSO, were added at the appropriate time and incubated for 15 min followed by the addition of ghrelin with FlexStation or FLIPR. Relative fluorescence was monitored by the FLIPR™ Molecular Device. EC50 and IC50 values were estimated from dose-response data using GraphPad Prism software. To check for GHSR-1a agonism the compound was added at t=20 sec. and the calcium response was followed for 2 minutes. To check for GHSR-1a antagonism the compound and Ghrelin (10 nM) were added to the cells at t=20 sec. and the calcium response was measured for 2 minutes. The potency of the antagonist was calculated by its ability to reduce the ghrelin response. Dose-response curves were made for relevant antagonists.

GHSR-1a [2] = target: T1, GHSR-1a; assay: Calcium FLIPR assay, GHSR-1a agonism; type: cell-based; conditions: HEK293/GHSR1a cell line; read-out: EC50 FLIPR against Activity (EC50 part of μM/Emax)
Experimental: as §1

[3] = Mus musculus, ip, 30 mg/kg i.p., at 1 hr
[4] = Mus musculus, ip, 10 mg/kg i.p., at 1 hr

Row | IC50 (GHSR-1a [1]) [nM] | EC50 (GHSR-1a [2]) [µM] | SMILES | Mouse Food Intake effect (Male C57BL/6J mice; 10 mg/kg i.p.) | inhibition in vivo at 10 mg/kg (Male C57BL/6J mice; [4]) [%] | also measured
1 | 21 | 0.009 | C[C@@H](NC(=O)N(C)C1CCN(C)CC1(C)C)c1cccc2ccccc12 (stereo partly drawn) |  |  | Mouse Food Intake, activity up to (Male C57BL/6J mice; 30 mg/kg i.p.): ≤ 8 h; inhibition in vivo at 30 mg/kg (Male C57BL/6J mice; Mus musculus, ip, 30 mg/kg i.p., at 4 h): 47%
2 | 5 | 0.006 | C[C@@H](NC(=O)N(Cc1ccccc1)C1CCN(C)CC1(C)C)c1cccc2ccccc12 (stereo partly drawn) |  |  | Mouse Food Intake effect (Male C57BL/6J mice; 30 mg/kg i.p.): NSE (30 mg/kg)
3 | 320 |  | CCN(C(=O)NC(C)c1cccc2ccccc12)C1CCN(C)CC1 (stereo not drawn) |  |  | Mouse Food Intake, activity up to (Male C57BL/6J mice; 30 mg/kg i.p.): ≤ 24 h; inhibition in vivo at 30 mg/kg (Male C57BL/6J mice; [3]): 28%
4 | 120 | 0.009 | CC(NC(=O)N(C)C1CCN(C)CC1)c1cccc(Cl)c1Cl (stereo not drawn) | NSE (10 mg/kg) |  | 
5 | 40 | 0.03 | COc1ccc(C(C)NC(=O)N(C)C2CCN(C)CC2)c2ccccc12 (stereo not drawn) | NSE |  | Mouse Food Intake, activity up to (Male C57BL/6J mice; 30 mg/kg i.p.): ≤ 24 h; Mouse Food Intake % increase food intake (Male C57BL/6J mice; 30 mg/kg i.p., at 1 hr): 70%
6 | 910 | 0.49 | CN1CCC(N(C)C(=O)NC(CO)c2cccc3ccccc23)CC1 (stereo not drawn) |  |  | inhibition in vivo at 10 mg/kg (Male C57BL/6J mice; Mus musculus, ip, 10 mg/kg i.p., 'at to 24 hrs'): 27%
7 | 22 | 16.8 | CC(NC(=O)N(Cc1ccccc1)C1CCN(C)CC1)c1cccc(Cl)c1Cl (stereo not drawn) |  | 47 | 
8 | 75 | 18.7 | CCN(C(=O)NC(CCc1cccc(OCc2cccnc2)c1)c1cccc2ccccc12)C1CCN(C)CC1 (stereo not drawn) |  | 74 | Mouse Food Intake, activity up to (Male C57BL/6J mice; 10 mg/kg i.p.): ≤ 24 h
9 | 66 | 0.02 | COc1ccc(C(CO)NC(=O)N(C)C2CCN(C)CC2)c2ccccc12 (stereo not drawn) |  | 47 | 
10 | 65 |  | CC(NC(=O)N(Cc1cccc(F)c1)C1CCN(C)CC1)c1cccc(Cl)c1Cl (stereo not drawn) |  | 44 | 
11 | 12 |  | CC(NC(=O)N(C)C1CCN(C)CC1(C)C)c1cccc(Cl)c1Cl (stereo not drawn) |  | 26 | 
12 | 70 |  | CN1CCC(N(C)C(=O)NC(COCc2ccccc2)c2cccc(Cl)c2Cl)CC1 (stereo not drawn) |  | 40 | Mouse Food Intake effect (Male C57BL/6J mice; 3 mg/kg i.p.): NSE; Mouse Food Intake, activity up to (Male C57BL/6J mice; 10 mg/kg i.p.): ≤ 4 h; Mouse Food Intake, activity up to (Male C57BL/6J mice; 30 mg/kg i.p.): ≤ 2 h; inhibition in vivo at 30 mg/kg (Male C57BL/6J mice; [3]): 50%
13 | 38 |  | CC(NC(=O)N(Cc1ccccc1Cl)C1CCN(C)CC1)c1cccc(Cl)c1Cl (stereo not drawn) |  | 95 | Mouse Food Intake, duration of activity (Male C57BL/6J mice; 3 mg/kg i.p., after 1 hr): no activity up to follow hrs; Mouse Food Intake, activity up to (Male C57BL/6J mice; 10 mg/kg i.p.): ≤ 24 h; Mouse Food Intake, activity up to (Male C57BL/6J mice; 30 mg/kg i.p.): ≤ 24 h; inhibition in vivo at 3 mg/kg (Male C57BL/6J mice; Mus musculus, ip, 3 mg/kg i.p., at 1 hr): 39%; inhibition in vivo at 30 mg/kg (Male C57BL/6J mice; Mus musculus, ip, 30 mg/kg i.p., at 2 hr): 70%
14 | 5 |  | COc1cccc(CN(C(=O)NC(C)c2cccc(Cl)c2Cl)C2CCN(C)CC2(C)C)c1 (stereo not drawn) | NSE (10 mg/kg) |  | 
15 | 12 | 0.01 | COc1ccc(C(C)NC(=O)N(C)C2CCN(C)CC2(C)C)c2ccccc12 (stereo not drawn) | NSE (10 mg/kg) |  | 
16 | 3 | 0.01 | COc1ccc(C(C)NC(=O)N(C)C2CCN(C)CC2(C)C)c(Cl)c1Cl (stereo not drawn) | NSE (10 mg/kg) |  | 
17 | 7 |  | CC(NC(=O)N(Cc1ccccc1F)C1CCN(C)CC1(C)C)c1cccc(Cl)c1Cl (stereo not drawn) | NSE (10 mg/kg) |  | 
18 | 5 |  | COc1cccc(CN(C(=O)N[C@H](C)c2cccc(Cl)c2Cl)C2CCN(C)CC2C)c1 (stereo partly drawn) | NSE (10 mpk) |  | 
19 | 4 | 0.0082 | COc1ccc(C(C)NC(=O)N(OC)C2CCN(C)CC2)c(Cl)c1Cl (stereo not drawn) |  |  | 
20 |  | 0.0021 | COc1ccc(C(C)NC(=O)N(O)C2CCN(C)CC2)c2ccccc12 (stereo not drawn) |  |  | 
